The target in test [1] is T1, full length rTrkA and mNGF (Rattus norvegicus, UniProt P35739).
T1 construct: co-expressing full length rTrkA and mNGF; expressed in transfected cells; host or cells: Ba/F3 cells
Put plainly: Inhibition of proliferation of Ba/F3 cells co-expressing full length rTrkA and mNGF (BaF3/TrkA-NFG). Format: cell-based. The note with it: BaF3 TRKA-NGF cells, CTG readout.

Test [2] deals with parental BaF3 cells. Put plainly: Proliferation of parental (untransformed) Ba/F3 cells maintained with IL3. The note with it: Mus musculus, BaF3, parental Ba/F3 cells; read-out: Ba/F3 IC 50. It is filed as cell-based, murine. On the procedure: (§1) Test compounds were dissolved in DMSO (10 mM) and transferred into 1.4 mL flat bottom or V-shaped Matrix tubes carrying a unique 2D matrix chip by individual compound hubs. The numbers of these chips were distinctively linked to the individual compound identification numbers. The stock solutions were stored at −20° C. if not used immediately. For the test procedure the vials were defrosted and identified by a scanner whereby a working sheet is generated that guides the subsequent working steps.
(§2) Compound dilutions were made in 384 well plates. This format enabled the assay of maximally 28 individual test compounds at 12 concentrations (single points) including 2 reference compounds. The dilution protocol included the production of pre-dilution plates, master plates and assay plates: • Compound plates: 30 μL of individual compound (10 mM) DMSO solution including standard compound were transferred into columns 1 and 13 of a 384 well plate. 20 μL of DMSO were added to the rest of the wells and the compounds were serially diluted (1:3) by transferring 10 μL from a well in column 1 or 13 to the next well in column 2 or 14 respectively and successively with the help of a Minitrack robot. • Assay plates: Identical assay plates were then prepared by adding […] each of compound dilutions of the compound plates into 384-well “assay plates”. In the following the compounds were mixed with 50 μL of assays components (cells or enzyme) and tested for their inhibitory activity.
(§3) The cell line used is the luciferase expressing Ba/F3 murine hematopoietic progenitor cell line transformed with human Tel-TrkA, Tel-TrkB or Tel-TrkC cDNAs (Ba/F3 EN A/B/C). These cells maintained in RPMI/10% fetal bovine serum (RPMI/FCS) supplemented with penicillin 50 mg/mL, streptomycin 50 mg/mL and L-glutamine […]. Untransformed Ba/F3 cells were similarly maintained with the addition 5 ng/ml of murine recombinant IL3. 50 μl of a Ba/F3 or Ba/F3 EN A/B/C cell suspension were plated in Greiner 384 well microplates (white)) at a density of 2000 cells per well. 50 nl of serially diluted test compound (10-0.0001 mM in DMSO solution) is added to each well. The cells were incubated for 48 hours at 37° C., 5% CO2. 25 μl of Bright Glo® (Promega) luciferase substrate is added to each well. The emited luminiscence is quantified using the ACQUEST™ luminescence system (Molecular Devices). IC50 values were calculated by linear regression analysis of the percentage inhibition of each compound at 12 concentrations.

Test [3] addresses T2, Tel-TrkA (Homo sapiens, UniProt P04629).
T2 construct: dimerization domain of Tel (ETV6) transcription factor (fusion partner, human ETV6 P41212); expressed in transfected cells; host or cells: luciferase expressing Ba/F3 murine hematopoietic progenitor cells; the other entry of the earlier key: ETV6 (P41212, Transcription factor ETV6)
The test is described as follows: Inhibition of proliferation of Ba/F3 cells expressing Tel-TrkA (BaF3/Tel-TrkA, luciferase/Bright Glo readout). It is filed as cell-based. The note with it: read-out: Ba/F3 Tel-TrkA IC 50. How it is done: as §1, §2
(§4) Compounds of Formula (I) were tested for their antiproliferative effect on Ba/F3 cells expressing either Tel-TrkA, Tel-TrkB or Tel-TrkC and an additional panel of 34 selected diverse kinases activated by fusion to the dimerizing partners Bcr or Tel (Abl, A1K, BMX, EphA3, EphB2, FGFR2, FGFR3, FGFR4, FGR, FLT1, FLT3, FLT4, FMS, IGF1R, InsR, JAK1, JAK2, JAK3, KDR, Kit, Lck, Lyn, MER, MET, PDGFRb, RET, RON, Ros-1, Src, Aurora, TIE2, TYK2, Tie1, ZAP70). The antiproliferative effect of these compounds on the different cell lines and on the non transformed cells were tested at 12 different concentrations of 3-fold serially diluted compounds in 384 well plates as described above (in media lacking IL3). The IC50 values of the compounds the different cell lines were determined from dose response curves.
as §3, with “50 nl of serially diluted test compound (10-0.0001 mM in DMSO solution) is added to each well.” left out

In test [4] the target is T3, Tel-TrkB (Homo sapiens, UniProt Q16620).
T3 construct: dimerization domain of Tel (ETV6) transcription factor (fusion partner, human ETV6 P41212); expressed in transfected cells; host or cells: luciferase expressing Ba/F3 murine hematopoietic progenitor cells; the other entry of the earlier key: ETV6 (P41212, Transcription factor ETV6)
T3 sequence (Q16620 538-822 limits assumed): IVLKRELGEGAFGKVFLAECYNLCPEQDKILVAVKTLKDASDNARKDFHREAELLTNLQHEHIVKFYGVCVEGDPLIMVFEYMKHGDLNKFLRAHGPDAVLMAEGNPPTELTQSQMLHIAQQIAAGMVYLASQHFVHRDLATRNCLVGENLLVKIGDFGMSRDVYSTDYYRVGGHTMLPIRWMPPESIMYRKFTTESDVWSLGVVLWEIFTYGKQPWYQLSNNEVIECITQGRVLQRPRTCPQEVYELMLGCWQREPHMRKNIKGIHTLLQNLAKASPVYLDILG
The test is described as follows: Inhibition of proliferation of Ba/F3 cells expressing Tel-TrkB (BaF3/Tel-TrkB). Format: cell-based. The note with it: Ba/F3 Tel-TrkB cells; read-out: Ba/F3 Tel-TrkB IC 50. How it is done: as §1, §2, §4
as §3, with “50 nl of serially diluted test compound (10-0.0001 mM in DMSO solution) is added to each well.” left out

T2 sequence (P04629 510-796 limits assumed): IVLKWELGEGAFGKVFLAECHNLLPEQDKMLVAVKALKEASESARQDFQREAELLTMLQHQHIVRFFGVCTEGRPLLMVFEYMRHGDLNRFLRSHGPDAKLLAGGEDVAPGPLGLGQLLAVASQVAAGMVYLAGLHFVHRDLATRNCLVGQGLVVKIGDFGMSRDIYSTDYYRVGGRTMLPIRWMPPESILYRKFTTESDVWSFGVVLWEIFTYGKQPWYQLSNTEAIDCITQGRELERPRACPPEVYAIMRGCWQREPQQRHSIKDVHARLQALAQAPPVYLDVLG
T1 sequence (P35739 33-799): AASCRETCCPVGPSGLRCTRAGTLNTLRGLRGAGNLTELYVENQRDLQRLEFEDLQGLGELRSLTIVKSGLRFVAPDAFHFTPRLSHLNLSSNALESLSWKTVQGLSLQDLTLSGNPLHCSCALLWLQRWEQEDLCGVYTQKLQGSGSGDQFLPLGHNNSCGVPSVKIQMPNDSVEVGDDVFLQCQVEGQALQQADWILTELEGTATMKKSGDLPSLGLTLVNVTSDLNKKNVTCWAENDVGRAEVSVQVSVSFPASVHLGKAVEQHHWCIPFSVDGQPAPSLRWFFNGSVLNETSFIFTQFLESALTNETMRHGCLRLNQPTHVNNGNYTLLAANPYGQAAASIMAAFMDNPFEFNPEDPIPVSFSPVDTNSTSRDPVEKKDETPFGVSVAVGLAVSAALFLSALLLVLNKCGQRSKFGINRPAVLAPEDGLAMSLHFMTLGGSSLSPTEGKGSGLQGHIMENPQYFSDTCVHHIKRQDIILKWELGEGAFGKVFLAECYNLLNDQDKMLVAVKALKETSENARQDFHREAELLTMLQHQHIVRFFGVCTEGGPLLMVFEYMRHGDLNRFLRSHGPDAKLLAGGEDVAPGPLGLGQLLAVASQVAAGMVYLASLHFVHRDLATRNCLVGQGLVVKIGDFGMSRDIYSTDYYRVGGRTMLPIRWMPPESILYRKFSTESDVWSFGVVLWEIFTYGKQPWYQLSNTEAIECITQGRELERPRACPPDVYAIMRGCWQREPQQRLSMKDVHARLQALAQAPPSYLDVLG
T1 sequence (P01139 122-241 partner): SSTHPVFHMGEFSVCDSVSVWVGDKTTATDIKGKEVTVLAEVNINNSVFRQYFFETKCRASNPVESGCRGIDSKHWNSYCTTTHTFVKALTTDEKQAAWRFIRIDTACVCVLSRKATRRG

Take `[2H]C([2H])([2H])N(C1CCN(c2cccc(-c3cnc4ccc(N5CCC[C@@H]5c5cccc(F)c5)nn34)n2)CC1)C([2H])([2H])[2H]` [Table 7-Compound 230]: the “BaF3 TRKA-NGF CTG IC 50” value in test [1] was 29 nM. For the same molecule, the IC50 in test [2] turned out to be 2690 nM; in test [3] it was 6 nM; in test [4], 9 nM.
For `OCCN1CCN(c2cccc(-c3cnc4ccc(N5CCOCC5c5cccc(F)c5)nn34)n2)CC1` (stereo not shown) [Table 7-Compound 5], the “BaF3 TRKA-NGF CTG IC 50” value in test [1] is 6.4 nM. The IC50 came to 4820 nM in test [2], 3.8 nM in test [3] and 6.2 nM in test [4].
With `Fc1cccc(C2COCCN2c2ccc3ncc(-c4cccc(N5CCOCC5)n4)n3n2)c1` (stereo not shown) [Table 2-Compound 10], the “BaF3 TRKA-NGF CTG IC 50” value in test [1] stood at 8.8 nM. Moreover, the IC50 in test [2] was above 10000 nM; in test [3], 6.9 nM; in test [4], 6.2 nM.
Taken in the same sequence, the figures for `Fc1cccc(C2COCCN2c2ccc3ncc(-c4cccc(NCCN5CCNCC5)n4)n3n2)c1` (stereo not shown) [Table 7-Compound 10] were 77 nM, above 10000 nM, 61 nM and 71 nM.
Consider `OC1CCN(Cc2cccc(-c3cnc4ccc(N5CCCC5c5cccc(F)c5)nn34)n2)C1` (stereo not shown) [Table 3-Compound 45], for which the “BaF3 TRKA-NGF CTG IC 50” value in test [1] was determined as 1020 nM. Further, the IC50 in test [2] stood at 8060 nM; in test [3], 1020 nM; in test [4], 790 nM.
Regarding `O=C1CCN(c2cccc(-c3cnc4ccc(N5CCC[C@@H]5c5cccc(F)c5)nn34)n2)CC1` [Table 7-Compound 181], the “BaF3 TRKA-NGF CTG IC 50” value in test [1] was 14 nM. In addition, the IC50 in test [2] is above 11000 nM; in test [3] it was 7 nM; in test [4], 8 nM.
Taken in the same sequence, the figures for `Fc1cccc([C@H]2CCCN2c2ccc3ncc(-c4cccc(N5CC[C@@H](NCC(F)(F)F)C5)n4)n3n2)c1` [Table 7-Compound 217] were 60 nM, above 11000 nM, 27 nM and 30 nM.
Taken in the same sequence, the figures for `CC(C)NC(=O)CN1CCN(c2cccc(-c3cnc4ccc(N5CCCC5c5cccc(F)c5)nn34)n2)CC1` (stereo not shown) [Table 7-Compound 96] were 3 nM, 5990 nM, 1 nM and 2 nM.
The matching figures for `CC(C)(C)OC(=O)N1CCC(Oc2ncc(-c3cnc4ccc(N5CCCC5c5cccc(F)c5)nn34)cn2)CC1` (stereo not shown) [Table 7-Compound 176]: 886 nM, 2750 nM, 1120 nM and 971 nM.
As to `CCOC(=O)N1CCC(n2c(=O)[nH]c3cc(-c4cnc5ccc(N6CCOCC6c6cccc(F)c6)nn45)ccc32)CC1` (stereo not shown) [Table 2-Compound 19], in test [1], the “BaF3 TRKA-NGF CTG IC 50” value is 1420 nM. The IC50 in test [2] came out at 5050 nM; in test [3], 2170 nM; in test [4], 1700 nM.
For `CNC1CCN(c2cc(-c3cccc(-c4cnc5ccc(N6CCCC6c6cccc(F)c6)nn45)n3)ccn2)CC1` (stereo not shown) [Table 7-Compound 249], the “BaF3 TRKA-NGF CTG IC 50” value in test [1] turned out to be 130 nM. In addition, the IC50 is 6380 nM in test [2], 144 nM in test [3] and 147 nM in test [4].
Take `O=C(CO)NC1CN(c2cccc(-c3cnc4ccc(N5CCC[C@@H]5c5cccc(F)c5)nn34)n2)C1` [Table 7-Compound 132]: the “BaF3 TRKA-NGF CTG IC 50” value in test [1] turned out to be 4 nM. The IC50 in test [2] is above 11000 nM; in test [3], 2 nM; in test [4], 2 nM.
`Fc1cccc(C2CCCN2c2ccc3ncc(-c4cccc(OCCN5CCOCC5)n4)n3n2)c1` (stereo not shown) [Table 4-Compound 25]: in test [1], the “BaF3 TRKA-NGF CTG IC 50” value worked out at 28 nM. Further, the IC50 in test [2] is 7500 nM; in test [3] it was 10 nM; in test [4], 7.1 nM.
Taken in the same sequence, the figures for `O=C(c1ccc(-c2cnc3ccc(N4CCCC4c4cccc(F)c4)nn23)cn1)N1CCC(O)CC1` (stereo not shown) [Table 3-Compound 26] were 370 nM, above 10000 nM, 1020 nM and 540 nM.
Take `NC(=O)C1CCCN(c2cccc(-c3cnc4ccc(N5CCOCC5c5cccc(F)c5)nn34)n2)C1` (stereo not shown) [Table 7-Compound 6]: the “BaF3 TRKA-NGF CTG IC 50” value in test [1] is 62 nM. Besides, the IC50 in test [2] was above 10000 nM; in test [3], 23 nM; in test [4], 39 nM.
`Fc1cccc(C2CCCN2c2ccc3ncc(-c4cccc(-c5ccnc(N6CC7(COC7)C6)n5)n4)n3n2)c1` (stereo not shown) [Table 7-Compound 136]: the “BaF3 TRKA-NGF CTG IC 50” value in test [1] was 39 nM. Further, the IC50 in test [2] worked out at 4320 nM; in test [3] it was 13 nM; in test [4] it was 24 nM.
The matching figures for `OCCN1CCN(c2nccc(-c3cccc(-c4cnc5ccc(N6CCC[C@@H]6c6cccc(F)c6)nn45)n3)n2)CC1` [Table 7-Compound 82]: 5.12 nM, 397 nM, 8.9 nM and 10 nM.
Take `O=C(NCCO)c1ccc(-c2cnc3ccc(N4CCCC4c4cccc(F)c4)nn23)cn1` (stereo not shown) [Table 3-Compound 19]: the “BaF3 TRKA-NGF CTG IC 50” value in test [1] was determined as 370 nM. The IC50 in test [2] is above 10000 nM; in test [3], 1020 nM; in test [4], 540 nM.
The matching figures for `OC1CCN(c2cncc(-c3cnc4ccc(N5CCCC5c5cccc(F)c5)nn34)n2)CC1` (stereo not shown) [Table 7-Compound 121]: 4.88 nM, above 10000 nM, 3.34 nM and 3.02 nM.
With `CN1CCC(N2CCN(c3cccc(-c4cnc5ccc(N6CCOCC6c6cccc(F)c6)nn45)n3)CC2)CC1` (stereo not shown) [Table 7-Compound 8], the “BaF3 TRKA-NGF CTG IC 50” value in test [1] was 6.1 nM. In addition, the IC50 was found to be 1570 nM in test [2], 8.2 nM in test [3] and 8.8 nM in test [4].
With `Fc1cccc(C2CCCN2c2ccc3ncc(-c4cc5ccccc5nc4F)n3n2)c1` (stereo not shown) [Table 7-Compound 153], the “BaF3 TRKA-NGF CTG IC 50” value in test [1] stood at 698 nM. Also, the IC50 in test [2] is above 11000 nM; in test [3], 346 nM; in test [4], 244 nM.
The matching figures for `Fc1ccc(N2CCN(c3cccc(-c4cnc5ccc(N6CCC[C@@H]6c6cccc(F)c6)nn45)n3)CC2)cc1` [Table 7-Compound 257]: 101 nM, above 11000 nM, 130 nM and 289 nM.

Source of the values: patent US8507488B2, “Fused nitrogen containing heterocycles and compositions thereof as kinase inhibitors” (IRM LLC, priority 2008, dated 2013).
